Each compound was assayed against T1, ITK (Homo sapiens, UniProt Q08881) (assay: ITK enzyme assay (Caliper or LCMS peptide phosphorylation)). Settings: purified ITK (Invitrogen PV3875), 20 μM ATP, Ki by Morrison's quadratic equation.
T1 construct: purchased Invitrogen PV3875
T1 sequence (Q08881 1-620): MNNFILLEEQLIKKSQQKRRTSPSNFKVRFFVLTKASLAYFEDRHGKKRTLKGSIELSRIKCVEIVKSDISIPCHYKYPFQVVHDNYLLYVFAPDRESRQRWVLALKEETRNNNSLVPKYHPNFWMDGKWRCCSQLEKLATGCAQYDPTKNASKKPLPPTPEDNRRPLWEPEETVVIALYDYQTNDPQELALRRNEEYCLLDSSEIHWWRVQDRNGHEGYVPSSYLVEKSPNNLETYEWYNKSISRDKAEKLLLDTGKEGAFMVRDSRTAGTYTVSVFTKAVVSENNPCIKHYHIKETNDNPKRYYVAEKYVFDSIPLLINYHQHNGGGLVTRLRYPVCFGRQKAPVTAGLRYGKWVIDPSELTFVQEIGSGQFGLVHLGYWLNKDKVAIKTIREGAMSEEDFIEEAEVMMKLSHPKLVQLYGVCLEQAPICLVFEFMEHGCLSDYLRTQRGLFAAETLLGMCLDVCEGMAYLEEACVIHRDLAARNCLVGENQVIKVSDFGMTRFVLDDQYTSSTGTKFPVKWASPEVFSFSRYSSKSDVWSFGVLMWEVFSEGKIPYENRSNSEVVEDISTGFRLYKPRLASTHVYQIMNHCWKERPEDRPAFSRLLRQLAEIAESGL
Format: biochemical
Procedure: The ability of purified ITK (Invitrogen PV3875) to catalyze peptide phosphorylation is monitored using a Caliper LabChip 3000 microfluidic unit (Caliper assay) or by liquid chromatography-mass spectrometry (LCMS) using a Waters Acquity system (LCMS assay). […] Reactions are quenched by the addition of 2,2′,2″,2′″-(ethane-1,2-diyldinitrilo)tetraacetic acid (50 mM final). Non-phosphorylated substrate and phosphorylated product peptides are separated and quantified using a Caliper LabChip 3000 instrument. […] Reactions are quenched by the addition of trichloroacetic acid (5% v/v final). Non-phosphorylated substrate and phosphorylated product peptides are separated by ultra performance LC and detected by a coupled triple quadrupole MS device applying multiple reaction monitoring (MRM) for quantification. The area of the MRM-extracted mass signal is used to assess the inhibition by test compounds. Equilibrium dissociation constant (Ki) values for ITK inhibitors are calculated from plots of activity vs. inhibitor concentration using Morrison's quadratic equation that accounts for the potential of tight binding, and by also applying the conversion factor that accounts for competitive inhibition and the concentration of ATP used in the assay relative to its apparent Michaelis constant (Km,app).

Ki [nM] | Structure (SMILES)
4 | CC1(C)CCc2c(C(=O)Nc3cnn(C(CN4CCCC4=O)c4ccccc4)c3)n[nH]c2C1 (racemic) [Example 76, 6,6-dimethyl-N-(1-(2-(2-oxopyrrolidin-1-yl)-1-phenylethyl)-1H-pyrazol-4-yl)-4,5,6,7-tetrahydro-1H-indazole-3-carboxamide]
9.4 | N#Cc1cccc(Cn2cc(NC(=O)c3n[nH]c4c3CCC(c3cn[nH]c3)C4)cn2)c1 (single isomer, unassigned) [Example 1a, N-(1-(3-cyanobenzyl)-1H-pyrazol-4-yl)-6-(1H-pyrazol-4-yl)-4,5,6,7-tetrahydro-1H-indazole-3-carboxamide]
8.3 | N#Cc1cccc(Cn2cc(NC(=O)c3n[nH]c4c3CCC(c3cn[nH]c3)C4)cn2)c1 (single isomer, unassigned) [Example 1b, N-(1-(3-cyanobenzyl)-1H-pyrazol-4-yl)-6-(1H-pyrazol-4-yl)-4,5,6,7-tetrahydro-1H-indazole-3-carboxamide]
68 | N#Cc1cccc(Cn2cc(NC(=O)c3n[nH]c4c3CC(c3cn[nH]c3)CC4)cn2)c1 (single isomer, unassigned) [Example 2a, N-(1-(3-cyanobenzyl)-1H-pyrazol-4-yl)-5-(1H-pyrazol-4-yl)-4,5,6,7-tetrahydro-1H-indazole-3-carboxamide]
34 | N#Cc1cccc(Cn2cc(NC(=O)c3n[nH]c4c3CC(c3cn[nH]c3)CC4)cn2)c1 (single isomer, unassigned) [Example 2b, N-(1-(3-cyanobenzyl)-1H-pyrazol-4-yl)-5-(1H-pyrazol-4-yl)-4,5,6,7-tetrahydro-1H-indazole-3-carboxamide]
360 | N#Cc1cccc(Cn2cc(NC(=O)c3n[nH]c4c3CCC(c3cncnc3)C4)cn2)c1 (single isomer, unassigned) [Example 4a, N-(1-(3-cyanobenzyl)-1H-pyrazol-4-yl)-6-(pyrimidin-5-yl)-4,5,6,7-tetrahydro-1H-indazole-3-carboxamide]
240 | N#Cc1cccc(Cn2cc(NC(=O)c3n[nH]c4c3CCC(c3cncnc3)C4)cn2)c1 (single isomer, unassigned) [Example 4b, N-(1-(3-cyanobenzyl)-1H-pyrazol-4-yl)-6-(pyrimidin-5-yl)-4,5,6,7-tetrahydro-1H-indazole-3-carboxamide]
310 | N#Cc1cccc(Cn2cc(NC(=O)c3n[nH]c4c3CCC(O)C4)cn2)c1 (single isomer, unassigned) [Example 5a, N-(1-(3-cyanobenzyl)-1H-pyrazol-4-yl)-6-hydroxy-4,5,6,7-tetrahydro-1H-indazole-3-carboxamide]
380 | N#Cc1cccc(Cn2cc(NC(=O)c3n[nH]c4c3CCC(O)C4)cn2)c1 (single isomer, unassigned) [Example 5b, N-(1-(3-cyanobenzyl)-1H-pyrazol-4-yl)-6-hydroxy-4,5,6,7-tetrahydro-1H-indazole-3-carboxamide]
70 | CC1CCc2[nH]nc(C(=O)Nc3cnn(Cc4ccccc4)c3)c2C1 (single isomer, unassigned) [Example 8a, N-(1-benzyl-1H-pyrazol-4-yl)-5-methyl-4,5,6,7-tetrahydro-1H-indazole-3-carboxamide]
77 | CC1CCc2[nH]nc(C(=O)Nc3cnn(Cc4ccccc4)c3)c2C1 (single isomer, unassigned) [Example 8b, N-(1-benzyl-1H-pyrazol-4-yl)-5-methyl-4,5,6,7-tetrahydro-1H-indazole-3-carboxamide]
120 | O=C(Nc1cnn(Cc2ccccc2)c1)c1n[nH]c2c1CCC(CO)C2 (single isomer, unassigned) [Example 14a, N-(1-benzyl-1H-pyrazol-4-yl)-6-(hydroxymethyl)-4,5,6,7-tetrahydro-1H-indazole-3-carboxamide]
21 | O=C(Nc1cnn(Cc2ccccc2)c1)c1n[nH]c2c1CCC(CO)C2 (single isomer, unassigned) [Example 14b, N-(1-benzyl-1H-pyrazol-4-yl)-6-(hydroxymethyl)-4,5,6,7-tetrahydro-1H-indazole-3-carboxamide]
11 | CN(C)CCC(c1ccccc1)n1cc(NC(=O)c2n[nH]c3c2CCC2(COC2)C3)cn1 (single isomer, unassigned) [Example 15a, N-(1-(3-(dimethylamino)-1-phenylpropyl)-1H-pyrazol-4-yl)-1,4,5,7-tetrahydrospiro[indazole-6,3′-oxetane]-3-carboxamide]
100 | CN(C)CCC(c1ccccc1)n1cc(NC(=O)c2n[nH]c3c2CCC2(COC2)C3)cn1 (single isomer, unassigned) [Example 15b, N-(1-(3-(dimethylamino)-1-phenylpropyl)-1H-pyrazol-4-yl)-1,4,5,7-tetrahydrospiro[indazole-6,3′-oxetane]-3-carboxamide]
0.5 | CN(C)CCC(c1ccccc1)n1cc(NC(=O)c2n[nH]c3c2CCC2(CC2)C3)cn1 (single isomer, unassigned) [Example 16a, N-(1-(3-(dimethylamino)-1-phenylpropyl)-1H-pyrazol-4-yl)-1′,4′,5′,7′-tetrahydrospiro[cyclopropane-1,6′-indazole]-3′-carboxamide]
7.9 | CN(C)CCC(c1ccccc1)n1cc(NC(=O)c2n[nH]c3c2CCC2(CC2)C3)cn1 (single isomer, unassigned) [Example 16b, N-(1-(3-(dimethylamino)-1-phenylpropyl)-1H-pyrazol-4-yl)-1′,4′,5′,7′-tetrahydrospiro[cyclopropane-1,6′-indazole]-3′-carboxamide]
24 | O=C(Nc1cnn(Cc2ccccc2)c1)c1n[nH]c2c1C1CC1CC2 (single isomer, unassigned) [Example 23a, N-(1-benzyl-1H-pyrazol-4-yl)-3,4,5,5a,6,6a-hexahydrocyclopropa[e]indazole-1-carboxamide]
550 | O=C(Nc1cnn(Cc2ccccc2)c1)c1n[nH]c2c1C1CC1CC2 (single isomer, unassigned) [Example 23b, N-(1-benzyl-1H-pyrazol-4-yl)-3,4,5,5a,6,6a-hexahydrocyclopropa[e]indazole-1-carboxamide]
9.4 | CC[C@@H](c1ccccc1)n1cc(NC(=O)c2n[nH]c3c2CC2CC2C3)cn1 (single isomer, unassigned) [Example 24a]
3.5 | CC[C@@H](c1ccccc1)n1cc(NC(=O)c2n[nH]c3c2CC2CC2C3)cn1 (single isomer, unassigned) [Example 24b]
1.7 | CC[C@@H](c1ccccc1)n1cc(NC(=O)c2n[nH]c3c2C2CC2CC3)cn1 (single isomer, unassigned) [Example 25a]
94 | CC[C@@H](c1ccccc1)n1cc(NC(=O)c2n[nH]c3c2C2CC2CC3)cn1 (single isomer, unassigned) [Example 25b]
2 | CN(C)CCC(c1ccccc1)n1cc(NC(=O)c2n[nH]c3c2C2CC2CC3)cn1 (single isomer, unassigned) [Example 26a, N-(1-(3-(dimethylamino)-1-phenylpropyl)-1H-pyrazol-4-yl)-3,4,5,5a,6,6a-hexahydrocyclopropa[e]indazole-1-carboxamide]
46 | CN(C)CCC(c1ccccc1)n1cc(NC(=O)c2n[nH]c3c2C2CC2CC3)cn1 (single isomer, unassigned) [Example 26b, N-(1-(3-(dimethylamino)-1-phenylpropyl)-1H-pyrazol-4-yl)-3,4,5,5a,6,6a-hexahydrocyclopropa[e]indazole-1-carboxamide]

Source: patent US20160326142A1, “PYRAZOLE CARBOXAMIDE COMPOUNDS, COMPOSITIONS AND METHODS OF USE” (Genentech, Inc., priority 2012, published 2016)
